Assay results as given in paper PMC4649711, “In1-ghrelin splicing variant is overexpressed in pituitary adenomas and increases their aggressive features” (Scientific Reports, 2015).
pEC50: −log10 of the molar value. “Also recorded” adds a separate entry of the source. Residues, ends and D or L forms follow the SMILES beside them. *: point of attachment. Octanoyl = CCCCCCCC(=O)*

What was measured:
[1] = target: T1, recombinant human GHSR1b (Homo sapiens, UniProt Q92847); assay: calcium signaling activation in GHSR1b-transfected CHO-K1 cells; type: cell-based; details: Calcium 4 kit, FLIPR Tetra, 37°C dye loading 1 h, dose-response, GraphPad Prism, read-out: Half-maximal Calcium signaling activation (EC50)
T1 construct: expressed in transfected cells; host or cells: CHO-K1 (ATCC CCL-61), stably transfected
Method: Changes in [Ca^2+]i in CHO-K1 cell line expressing recombinant GHSR1a or GHSR1b receptor were measured using Calcium 4 Explorer Kit (Molecular Devices, Sunnyvale, CA, USA). Briefly, cells were incubated at 37°C, 5% CO2 overnight in growth media. After 24 hours, growth media was replaced with Calcium 4 indicating dye in HBSS buffer containing 20 mM HEPES and 0.1% BSA and incubated for 1 hour at 37°C. Fluorescent signals were then monitored using the FLIPR Tetra (Molecular Devices, Sunnyvale, CA, USA) during which cells were stimulated with compounds. Dose-response curves were analyzed using GraphPad Prism v5.04 (La Jolla, CA, USA).

[2] = test system: AtT-20 cell line; assay: ACTH secretion from AtT-20 cell line; type: cell-based, mouse; details: 4 h, 3–5 independent experiments
Method: (§1) The mouse corticotroph pituitary derived cell line AtT-20/D16v-F2 (ATCC® CRL-1795) was cultured and maintained in Dulbecco's Modified Eagle's Medium (DMEM) complemented with 10% FBS, 100 U/ml penicillin/streptomycin, 0.024 M of 2-(4(2-hydroxyethyl)-1-piperazine)-ethane sulfonic acid (HEPES), and maintained at 37°C and 5% CO2, under sterile conditions. CHO-K1 cell line(ATCC® CCL-61) expressing recombinant human GHSR1a (GenBank accession number U60179) or GHSR1b (GenBank accession number U60181) were cultured and maintained in Ham's F12 media (Corning #10-080-CV) supplemented with 10% FBS, 2 mM L-Glutamine and 0.4 mg/mL Geneticin.
To examine the effects of ghrelin system components (4- and/or 24 h-incubation) on pituitary hormone release from primary pituitary adenoma and/or AtT-20 cell line, 100,000–200,000 cell/well were used. As previously reported, hormone concentrations were measured in the culture media derived from human samples according to the pituitary adenoma type using commercial ELISAs [growth hormone, GH; adrenocorticotropin, ACTH; and prolactin, PRL (reference numbers: EIA-3552, EIA-3647 and EIA-1291, respectively; DRG, Mountainside, NJ, USA)] following the manufacturer's instructions. All the information regarding specificity, detectability, and reproducibility for each of the assays can be accessed at the web site of the company.

[3] = test system: AtT-20 cell line; assay: cell viability of AtT-20 cell line; type: cell-based, mouse; details: alamar-blue, 3–5 independent experiments, IGF-1 and Paclitaxel as controls
Method: as §1
As previously reported, cell viability was estimated using alamar-blue reagent (10,000 cells/well-plate; Biosource International, Camarillo, CA, USA)[30][50][52]. Briefly, cells were serum-starved for 12–16 h before the measurements and treated with serum-free medium containing 10% alamar-blue for 3 h. Reduction of alamar-blue reagent was quantified exciting at 560 nm and reading at 590 nm using the FlexStation III system (Molecular Devices, Sunnyvale, CA, USA). Subsequently, media was replaced by serum-containing alamar-blue free medium and incubated for additional 24–72 h, measuring the alamar-blue reduction every 24 h. […]

[4] = test system: GH-omas; assay: cell viability of GH-omas after In1-ghrelin silencing; type: cell-based, human; details: siRNA 100 nM vs scramble, 24 and 48 h, alamar-blue, n = 2
Excerpt: (§2) To perform overexpression experiments, ghrelin sequence was purchased, cloned in pCMV-Sport6-vector (Harvard Cancer Center, Boston, MA, USA) and was subcloned into the expression vector pCDNA3.1+ (Life Technologies, Grand Island, NY, USA). In1-ghrelin sequence was PCR-amplified (In1-Hind-Up: 5′-[…]-3′ and In1-Bam-Low: 5′-[…]-3′) and cloned into pCDNA3.1+. Empty pCDNA3.1+ (mock) was used in all the experiments as negative control. For silencing experiments, a battery of custom-designed siRNAs specifically targeted against the unique In1-ghrelin mRNA sequence was chemically synthesized by Life Technologies and their efficiency, specificity and appropriate concentration tested in human cell lines expressing In1-ghrelin (MDA-MB-231 breast cancer cell line and LnCAP prostate cancer cell line) (data not shown). […]
(§3) As previously reported, cell viability was estimated using alamar-blue reagent (10,000 cells/well-plate; Biosource International, Camarillo, CA, USA)[30][50][52]. […] Reduction of alamar-blue reagent was quantified exciting at 560 nm and reading at 590 nm using the FlexStation III system (Molecular Devices, Sunnyvale, CA, USA). […]

[5] = test system: NFPAs; assay: cell viability of NFPAs after In1-ghrelin silencing; type: cell-based, human; details: siRNA 100 nM vs scramble, 24 and 48 h, alamar-blue, n = 2
Excerpt: as §2, §3

[6] = test system: In1-ghrelin mRNA; assay: silencing of In1-ghrelin mRNA expression; type: cell-based, human; details: qPCR; for silencing of In1-ghrelin expression: human cell lines MDA-MB-231 and LnCAP (data not shown) or representative pituitary tumor validation (Figure 6G)
Excerpt: To perform overexpression experiments, ghrelin sequence was purchased, cloned in pCMV-Sport6-vector (Harvard Cancer Center, Boston, MA, USA) and was subcloned into the expression vector pCDNA3.1+ (Life Technologies, Grand Island, NY, USA). In1-ghrelin sequence was PCR-amplified (In1-Hind-Up: 5′-[…]-3′ and In1-Bam-Low: 5′-[…]-3′) and cloned into pCDNA3.1+. Empty pCDNA3.1+ (mock) was used in all the experiments as negative control. For silencing experiments, a battery of custom-designed siRNAs specifically targeted against the unique In1-ghrelin mRNA sequence was chemically synthesized by Life Technologies and their efficiency, specificity and appropriate concentration tested in human cell lines expressing In1-ghrelin (MDA-MB-231 breast cancer cell line and LnCAP prostate cancer cell line) (data not shown). […] As a negative control, a commercial, validated negative control (scramble) was used in all the experiments, which according to the manufacturer's instructions, has no significant sequence similarity to murine or human gene sequences (Silencer Select Negative Control No. 1 siRNA, Life Technologies, […], NY, USA).
For transfection assays (overexpression or silencing), 200,000–500,000 cells were seeded on 6-well plates in serum containing medium during 24–36 h. Then, medium was replaced with antibiotic-antimycotic free medium. For overexpression experiments, 100 ng/50,000 cell of ghrelin or In1-ghrelin plasmid was diluted in 50 μL of Opti-MEM and, 0.5 μL of Lipofectamine 2000 (Life Technologies) were separately diluted in another 50 μL of Opti-MEM. Both solutions were incubated for 5 minutes at room temperature and then, were mixed and incubated for 30 minutes at room temperature. After this incubation period, the solution (total of 100 μL) was added to the cells/per well. For silencing experiments, 7.5 μL of Lipofectamine RNAiMAX (Life Technologies) was diluted in 100 μL of Opti-MEM and, 100 nM of In1-ghrelin siRNA was separately diluted in another 100 μL of Opti-MEM. […]

T1 sequence (Q92847 1-289 isoform Q92847-2): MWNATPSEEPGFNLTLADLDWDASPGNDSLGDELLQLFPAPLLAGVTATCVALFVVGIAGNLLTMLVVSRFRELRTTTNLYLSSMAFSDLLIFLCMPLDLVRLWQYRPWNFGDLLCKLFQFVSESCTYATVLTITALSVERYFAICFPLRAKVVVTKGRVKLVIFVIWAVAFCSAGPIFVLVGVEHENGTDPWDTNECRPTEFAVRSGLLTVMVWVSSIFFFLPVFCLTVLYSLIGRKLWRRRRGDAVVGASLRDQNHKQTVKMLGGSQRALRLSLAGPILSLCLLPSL

CCCCCCCC(=O)OC[C@H](NC(=O)[C@H](CO)NC(=O)CN)C(=O)N[C@@H](Cc1ccccc1)C(=O)N[C@@H](CC(C)C)C(=O)N[C@@H](CO)C(=O)N1CCC[C@H]1C(=O)N[C@@H](CCC(=O)O)C(=O)N[C@@H](Cc1c[nH]cn1)C(=O)N[C@@H](CCC(N)=O)C(=O)N[C@@H](CCCNC(=N)N)C(=O)N[C@H](C(=O)N[C@@H](CCC(N)=O)C(=O)N[C@H](C(=O)N[C@@H](CCCNC(=N)N)C(=O)N1CCC[C@H]1C(=O)N1CCC[C@H]1C(=O)N[C@@H](Cc1c[nH]cn1)C(=O)N[C@@H](CCCCN)C(=O)O)C(C)C)C(C)C [In1-19] (H-GSS(Octanoyl)FLSPEHQRVQVRPPHK-OH)
pEC50 [1]: < 5.52

GSSFLSPEHQKAQVSQSVSLSPHIYPDLCVCV [In2-ghrelin, 32-aa mouse In2-ghrelin derived peptide, murine counterpart of In1-ghrelin]
basal ACTH release [2]: significantly increased basal ACTH release
cell viability [3]: stimulated cell viability; also recorded: increased cell viability

5′-GAGTCCTAAACAGACTGTT-3′ (siRNA; other strand not given here) [In1-ghrelin siRNA]
cell viability after In1-ghrelin silencing [4]: reduced cell viability
cell viability after In1-ghrelin silencing [5]: reduced cell viability
silencing of In1-ghrelin expression [6]: more robust silencing efficiency of In1-ghrelin, but not native ghrelin
silencing of In1-ghrelin expression ([6]; listed as specific siRNAs): decrease of In1-ghrelin mRNA expression
ghrelin mRNA expression after In1-ghrelin silencing ([6]; selectivity vs native ghrelin): no significant decrease of ghrelin mRNA expression

CCCCCCCC(=O)OC[C@H](NC(=O)[C@H](CO)NC(=O)CN)C(=O)N[C@@H](Cc1ccccc1)C(=O)N[C@@H](CC(C)C)C(=O)N[C@@H](CO)C(=O)N1CCC[C@H]1C(=O)N[C@@H](CCC(=O)O)C(=O)N[C@@H](Cc1c[nH]cn1)C(=O)N[C@@H](CCC(N)=O)C(=O)N[C@@H](CCCNC(=N)N)C(=O)N[C@H](C(=O)N[C@@H](CCC(N)=O)C(=O)N[C@H](C(=O)N[C@@H](CCCNC(=N)N)C(=O)N1CCC[C@H]1C(=O)N1CCC[C@H]1C(=O)N[C@@H](Cc1c[nH]cn1)C(=O)N[C@@H](CCCCN)C(=O)N[C@@H](C)C(=O)N1CCC[C@H]1C(=O)N[C@@H](Cc1c[nH]cn1)C(=O)N[C@H](C(=O)N[C@H](C(=O)N1CCC[C@H]1C(=O)N[C@@H](C)C(=O)N[C@@H](CC(C)C)C(=O)N1CCC[C@H]1C(=O)N[C@@H](CC(C)C)C(=O)N[C@@H](CO)C(=O)N[C@@H](CC(N)=O)C(=O)N[C@@H](CCC(N)=O)C(=O)N[C@@H](CC(C)C)C(=O)N[C@@H](CS)C(=O)N[C@@H](CC(=O)O)C(=O)N[C@@H](CC(C)C)C(=O)N[C@@H](CCC(=O)O)C(=O)N[C@@H](CCC(N)=O)C(=O)N[C@@H](CCC(N)=O)C(=O)N[C@@H](CCCNC(=N)N)C(=O)O)C(C)C)C(C)C)C(C)C)C(C)C [In1-40] (H-GSS(Octanoyl)FLSPEHQRVQVRPPHKAPHVVPALPLSNQLCDLEQQR-OH)
pEC50 [1]: < 5.52
